Measurements as given in patent US12552755B2, “Cinnamic amide derivative having FXR activating effect, pharmaceutical composition containing the same as active ingredient, and method for preparing the same” (KYUNGSUNG UNIVERSITY INDUSTRY COOPERATION FOUNDATION, priority 2019, dated 2026).

Molecular target: T1, farnesol X receptor (FXR) (Homo sapiens, UniProt Q96RI1)
T1 construct: endogenous in cells; host or cells: HepG2
T1 sequence (Q96RI1 1-486): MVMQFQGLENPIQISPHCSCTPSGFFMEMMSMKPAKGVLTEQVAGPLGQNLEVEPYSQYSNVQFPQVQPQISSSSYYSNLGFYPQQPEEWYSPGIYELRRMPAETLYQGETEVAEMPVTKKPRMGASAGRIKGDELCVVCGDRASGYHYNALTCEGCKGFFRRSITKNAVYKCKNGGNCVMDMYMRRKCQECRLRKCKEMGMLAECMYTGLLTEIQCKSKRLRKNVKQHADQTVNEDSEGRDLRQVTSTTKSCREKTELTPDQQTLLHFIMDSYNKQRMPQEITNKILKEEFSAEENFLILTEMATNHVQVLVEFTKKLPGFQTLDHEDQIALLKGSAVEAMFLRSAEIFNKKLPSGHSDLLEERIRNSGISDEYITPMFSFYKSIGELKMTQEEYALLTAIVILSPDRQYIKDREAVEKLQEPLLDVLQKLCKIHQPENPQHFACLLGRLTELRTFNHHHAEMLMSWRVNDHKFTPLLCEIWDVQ
Experiment: Farnesol X receptor (FXR) reporter gene assay (dual luciferase) in HepG2 cells
Type: cell-based
Conditions: for fold induction at 10 µM: HepG2 cells, drug treatment 24 hours, firefly/renilla luciferase ratio, Con = 1.00; for FXR activating effect compared with GW4064: statement on Table 4 data
Method: HepG2 cells were purchased from ATCC (Manassas, VA, USA) and cultured in Dulbecco's modified Eagle's medium (DMEM; Hyclone) containing 10% fetal bovine serum (FBS, Hyclone, Logan, UT, USA), 50 units/mL penicillin (Hyclone) and 50 μg/mL streptomycin (Hyclone). All cells were cultured to have a confluency of about 80% to 90% under the conditions of 37° C. and 5% Co2.
In order to measure FXR transcription factor activity, HepG2 cells (1×10^5 cells/well) were cultured in a 48-well cell culture plate (SPL Life Science Co., Gyeonggido, Korea) for 20 hours and then transduced using Lipofectamin L3000 (Invitrogen, San Diego, CA, USA). Luciferase is an enzyme that catalyzes light-emitting reactions. A plasmid in which the firefly luciferase gene was fused to farnesol X receptor (FXR) and a plasmid in which the renilla luciferase gene was fused to thymidine kinase (TK) were used for transduction. Reacted were 25 μL of serum and antibiotic-free Opti-MEM® (Life Technologies, Grand Island, NY) and 0.5 μL of Lipofectamin L3000 per 0.5 μg of FXR-firefly luciferase plasmid and 10 ng of TK-renilla luciferase plasmid, and the cells were reacted with the reaction mixture for 24 hours. Thereafter, DMEM medium containing 0.1% serum was treated with a drug for 24 hours. After the reaction was completed, the drug-treated culture medium was discarded, and lysis buffer was added at 0.4 ml/well to remove the cells, then the cells were dispensed into a 96-well white plate (SPL Life Science Co.), and the luminescence level was measured using the Dual-glo Luciferase Assay System (Promega, Madison, WI, USA). For the firefly luciferase activity (to see the level of FXR expression) and renilla luciferase activity (to provide a reference value by showing constant expression), the luminescence level was measured using the GloMax Multi Detection System (Promega) and then the relative ratio (firefly luciferase activity/renilla luciferase activity) was calculated.

SMILES	fold induction at 10 µM	FXR activating effect compared with GW4064
CCOC(=O)CNC(=O)/C=C/c1ccc(OCc2ccccc2)cc1 [KS-002, ethyl (E)-(3-(4-(benzyloxy)phenyl)acryloyl)glycinate]	1.22	–
Cc1onc(-c2ccccc2)c1COc1ccc(/C=C/C(=O)N[C@@H](C)C(=O)O)cc1 [KS-030, (E)-(3-(4-((5-methyl-3-phenylisoxazol-4-yl)methoxy)phenyl)acryloyl)-L-alanine]	0.82	–
COC(=O)[C@H](Cc1ccccc1)NC(=O)/C=C/c1ccc(OCc2c(-c3c(Cl)cccc3Cl)noc2C)cc1 [KS-038, methyl (E)-(3-(4-((3-(2,6-dichlorophenyl)-5-methylisoxazol-4-yl)methoxy)phenyl)acryloyl)-L-phenylalaninate]	2.21	–
CCOC(=O)CNC(=O)/C=C/c1ccc(OCc2ccc([N+](=O)[O-])cc2)cc1 [KS-006, ethyl (E)-(3-(4-((4-nitrobenzyl)oxy)phenyl)acryloyl)glycinate]	1.38	–
Cc1onc(-c2c(Cl)cccc2Cl)c1COc1ccc(/C=C/C(=O)NCCC(=O)O)cc1 [KS-047, (E)-3-(3-(4-((3-(2,6-dichlorophenyl)-5-methylisoxazol-4-yl)methoxy)phenyl)acrylamido)propanoic acid]	3.04	–
CC(C)c1onc(-c2c(Cl)cccc2Cl)c1COc1ccc(/C=C/C(=O)N[C@H](C(=O)O)C(C)C)cc1 [KS-034, (E)-(3-(4-((3-(2,6-dichlorophenyl)-5-isopropylisoxazol-4-yl)methoxy)phenyl)acryloyl)-L-valine]	8.91	superior to GW4064
CCOC(=O)CNC(=O)/C=C/c1ccc(O)cc1 [KS-001, ethyl (E)-(3-(4-hydroxyphenyl)acryloyl)glycinate]	1.22	–
O=C(O)CNC(=O)/C=C/c1ccc(O)cc1 [KS-013, (E)-(3-(4-hydroxyphenyl)acryloyl)glycine]	1.46	–
Cc1onc(-c2ccccc2)c1COc1ccc(/C=C/C(=O)N[C@H](C)C(=O)O)cc1 [KS-054, (E)-(3-(4-((5-methyl-3-phenylisoxazol-4-yl)methoxy)phenyl)acryloyl)-D-alanine]	0.9	–
CCOC(=O)[C@H](C)NC(=O)/C=C/c1ccc(OCc2c(-c3ccccc3)noc2C)cc1 [KS-027, ethyl (E)-(3-(4-((5-methyl-3-phenylisoxazol-4-yl)methoxy)phenyl)acryloyl)-L-alaninate]	1.04	–
Cc1onc(-c2ccccc2)c1COc1ccc(/C=C/C(=O)N[C@@H](Cc2ccccc2)C(=O)O)cc1 [KS-042, (E)-(3-(4-((5-methyl-3-phenylisoxazol-4-yl)methoxy)phenyl)acryloyl)-L-phenylalanine]	1.41	–
CC(C)c1onc(-c2c(Cl)cccc2Cl)c1COc1ccc(/C=C/C(=O)NCCC(=O)O)cc1 [KS-046, (E)-3-(3-(4-((3-(2,6-dichlorophenyl)-5-isopropylisoxazol-4-yl)methoxy)phenyl)acrylamido)propanoic acid]	11.4	superior to GW4064
Cc1onc(-c2c(Cl)cccc2Cl)c1COc1ccc(/C=C/C(=O)N[C@H](C(=O)O)C(C)C)cc1 [KS-035, (E)-(3-(4-((3-(2,6-dichlorophenyl)-5-methylisoxazol-4-yl)methoxy)phenyl)acryloyl)-L-valine]	1.65	–
CCOC(=O)[C@@H](NC(=O)/C=C/c1ccc(OCc2c(-c3c(Cl)cccc3Cl)noc2C)cc1)C(C)C [KS-032, ethyl (E)-(3-(4-((3-(2,6-dichlorophenyl)-5-methylisoxazol-4-yl)methoxy)phenyl)acryloyl)-L-valinate]	1.89	–
CC(C)c1onc(-c2c(Cl)cccc2Cl)c1COc1ccc(/C=C/C(=O)N[C@@H](C)C(=O)O)cc1 [KS-028, (E)-(3-(4-((3-(2,6-dichlorophenyl)-5-isopropylisoxazol-4-yl)methoxy)phenyl)acryloyl)-L-alanine]	7.44	superior to GW4064
O=C(O)CNC(=O)/C=C/c1ccc(OCc2ccc(-c3ccccc3)cc2)cc1 [KS-016, (E)-(3-(4-([1,1′-biphenyl]-4-ylmethoxy)phenyl)acryloyl)glycine]	1.99	–
COC(=O)CCNC(=O)/C=C/c1ccc(OCc2c(-c3c(Cl)cccc3Cl)noc2C(C)C)cc1 [KS-043, methyl (E)-3-(3-(4-((3-(2,6-dichlorophenyl)-5-isopropylisoxazol-4-yl)methoxy)phenyl)acrylamido)propanoate]	10	superior to GW4064
COC(=O)[C@@H](C)NC(=O)/C=C/c1ccc(OCc2c(-c3ccccc3)noc2C)cc1 [KS-051, methyl (E)-(3-(4-((5-methyl-3-phenylisoxazol-4-yl)methoxy)phenyl)acryloyl)-D-alaninate]	1.34	–
CC(C)c1onc(-c2c(Cl)cccc2Cl)c1COc1ccc(/C=C/C(=O)N[C@H](C)C(=O)O)cc1 [KS-052, (E)-(3-(4-((3-(2,6-dichlorophenyl)-5-isopropylisoxazol-4-yl)methoxy)phenyl)acryloyl)-D-alanine]	8.12	superior to GW4064
COC(=O)CCNC(=O)/C=C/c1ccc(OCc2c(-c3ccccc3)noc2C)cc1 [KS-045, methyl (E)-3-(3-(4-((5-methyl-3-phenylisoxazol-4-yl)methoxy)phenyl)acrylamido)propanoate]	1.2	–
CCOC(=O)[C@H](C)NC(=O)/C=C/c1ccc(OCc2c(-c3c(Cl)cccc3Cl)noc2C)cc1 [KS-026, ethyl (E)-(3-(4-((3-(2,6-dichlorophenyl)-5-methylisoxazol-4-yl)methoxy)phenyl)acryloyl)-L-alaninate]	1.26	–
O=C(O)CNC(=O)/C=C/c1ccc(OCc2cccc(OC(F)(F)F)c2)cc1 [KS-019, (E)-(3-(4-((3-(trifluoromethoxy)benzyl)oxy)phenyl)acryloyl)glycine]	1.19	–
CCOC(=O)CNC(=O)/C=C/c1ccc(OCc2cccc([N+](=O)[O-])c2)cc1 [KS-008, ethyl (E)-(3-(4-((3-nitrobenzyl)oxy)phenyl)acryloyl)glycinate]	1.5	–
Cc1onc(-c2c(Cl)cccc2Cl)c1COc1ccc(/C=C/C(=O)NCC(=O)O)cc1 [KS-023, (E)-(3-(4-((3-(2,6-dichlorophenyl)-5-methylisoxazol-4-yl)methoxy)phenyl)acryloyl)glycine]	1.93	–
CCOC(=O)CNC(=O)/C=C/c1ccc(OCc2c(-c3c(Cl)cccc3Cl)noc2C(C)C)cc1 [KS-010, ethyl (E)-(3-(4-((3-(2,6-dichlorophenyl)-5-isopropylisoxazol-4-yl)methoxy)phenyl)acryloyl)glycinate]	10.5	superior to GW4064
CCOC(=O)[C@H](C)NC(=O)/C=C/c1ccc(OCc2c(-c3c(Cl)cccc3Cl)noc2C(C)C)cc1 [KS-025, ethyl (E)-(3-(4-((3-(2,6-dichlorophenyl)-5-isopropylisoxazol-4-yl)methoxy)phenyl)acryloyl)-L-alaninate]	10.9	superior to GW4064
Cc1onc(-c2ccccc2)c1COc1ccc(/C=C/C(=O)NCC(=O)O)cc1 [KS-024, (E)-(3-(4-((5-methyl-3-phenylisoxazol-4-yl)methoxy)phenyl)acryloyl)glycine]	1.68	–
Cc1onc(-c2c(Cl)cccc2Cl)c1COc1ccc(/C=C/C(=O)N[C@@H](C)C(=O)O)cc1 [KS-029, (E)-(3-(4-((3-(2,6-dichlorophenyl)-5-methylisoxazol-4-yl)methoxy)phenyl)acryloyl)-L-alanine]	1.71	–
CC(C)c1onc(-c2c(Cl)cccc2Cl)c1COc1ccc(/C=C/C(=O)N[C@@H](Cc2ccccc2)C(=O)O)cc1 [KS-040, (E)-(3-(4-((3-(2,6-dichlorophenyl)-5-isopropylisoxazol-4-yl)methoxy)phenyl)acryloyl)-L-phenylalanine]	9	superior to GW4064
